Laboratory results from PMC6349869, “The palladacycle complex AJ-5 induces apoptotic cell death while reducing autophagic flux in rhabdomyosarcoma cells” (Cell Death Discovery, 2019).

What was measured:
[1] = system: RMS cell lines including RD and RH30 cells; parameters: method as in PMID 10917549, PMID 11742497; conditions: after 4–5 days of treatment, range of RMS cell lines including RD and RH30; cited from earlier work
RH30 and RD cells = assay: IC50 of doxorubicin established in the cell lines tested; type: cell-based; conditions: Homo sapiens

Structure (SMILES): N.N.[Cl][Pt][Cl] [Cisplatin, cisplatin]
- IC50 [1]: > 500 nM

Structure (SMILES): COc1cccc2c1C(=O)c1c(O)c3c(c(O)c1C2=O)C[C@@](O)(C(=O)CO)C[C@@H]3O[C@H]1C[C@H](N)[C@H](O)[C@H](C)O1 [Doxorubicin, doxorubicin]
- IC50 (RH30 and RD cells): 500 nM
